Reference: ChEMBL document CHEMBL1201862, “PubChem BioAssay data set” (2004)
Active and inactive are the calls of the source.

What was measured:
[1] = molecular target: Hexokinase-1 (Homo sapiens, UniProt P19367); test: SAR analysis of small molecule inhibitors of hexokinase domain containing I (HKDC1) in the hexokinase 1 selectivity assay. [Related pubchem assays (depositor defined):AID493160, AID493190]; assay type: functional
[2] = molecular target: T1, Hexokinase HKDC1 (Homo sapiens, UniProt Q2TB90); test: SAR analysis of small molecule inhibitors of hexokinase domain containing I (HKDC1). [Related pubchem assays (depositor defined):AID493160, AID493190]; assay type: functional
T1 sequence (Q2TB90 whole entry): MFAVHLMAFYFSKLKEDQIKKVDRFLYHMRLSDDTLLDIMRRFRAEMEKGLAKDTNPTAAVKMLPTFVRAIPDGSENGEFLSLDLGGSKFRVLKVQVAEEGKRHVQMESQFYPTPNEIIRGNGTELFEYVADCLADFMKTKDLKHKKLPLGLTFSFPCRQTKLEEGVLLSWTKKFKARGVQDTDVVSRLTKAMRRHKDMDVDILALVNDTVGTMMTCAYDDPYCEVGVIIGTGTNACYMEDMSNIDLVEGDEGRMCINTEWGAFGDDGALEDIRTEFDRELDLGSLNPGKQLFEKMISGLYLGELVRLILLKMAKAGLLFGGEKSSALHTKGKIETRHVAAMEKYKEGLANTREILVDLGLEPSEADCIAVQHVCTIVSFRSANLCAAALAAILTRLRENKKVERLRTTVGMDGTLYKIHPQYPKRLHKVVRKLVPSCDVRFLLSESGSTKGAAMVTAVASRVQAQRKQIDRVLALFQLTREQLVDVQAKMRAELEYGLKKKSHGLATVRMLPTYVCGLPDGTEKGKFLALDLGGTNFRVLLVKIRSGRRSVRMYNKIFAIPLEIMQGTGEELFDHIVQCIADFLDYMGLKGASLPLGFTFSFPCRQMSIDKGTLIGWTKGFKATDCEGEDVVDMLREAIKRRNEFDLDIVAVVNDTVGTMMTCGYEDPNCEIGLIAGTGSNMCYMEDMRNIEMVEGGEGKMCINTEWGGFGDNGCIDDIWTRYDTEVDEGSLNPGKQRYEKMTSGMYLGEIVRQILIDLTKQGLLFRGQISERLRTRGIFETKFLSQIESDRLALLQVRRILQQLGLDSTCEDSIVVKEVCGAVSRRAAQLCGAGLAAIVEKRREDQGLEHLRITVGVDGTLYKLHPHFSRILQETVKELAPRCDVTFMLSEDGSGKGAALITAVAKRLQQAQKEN

[3] = tested on: HEK293; test: cells; assay type: functional, cell-based; details: Homo sapiens
[4] = molecular target: T2, Nuclear receptor subfamily 0 group B member 1 (Homo sapiens, UniProt P51843); test: Luminescence-based cell-based high throughput dose response assay for inhibitors of the orphan nuclear receptor subfamily 0, group B, member 1 (DAX1; NR0B1). [Related pubchem assays (depositor defined):AID504766, AID504790]; assay type: functional
T2 sequence (P51843 whole entry): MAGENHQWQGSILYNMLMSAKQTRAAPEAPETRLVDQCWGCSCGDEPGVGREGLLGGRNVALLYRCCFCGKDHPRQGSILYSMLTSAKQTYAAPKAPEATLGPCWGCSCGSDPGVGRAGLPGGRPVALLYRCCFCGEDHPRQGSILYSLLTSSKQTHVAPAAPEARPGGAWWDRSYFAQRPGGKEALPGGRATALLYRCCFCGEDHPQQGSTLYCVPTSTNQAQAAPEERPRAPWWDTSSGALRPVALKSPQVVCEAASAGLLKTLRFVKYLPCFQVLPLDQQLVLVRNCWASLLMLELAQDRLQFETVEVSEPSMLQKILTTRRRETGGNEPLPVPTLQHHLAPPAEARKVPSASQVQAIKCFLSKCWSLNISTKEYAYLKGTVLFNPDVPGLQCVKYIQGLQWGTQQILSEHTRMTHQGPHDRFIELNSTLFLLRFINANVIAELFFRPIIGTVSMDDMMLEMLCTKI

[5] = molecular target: Major prion protein (Homo sapiens, UniProt P04156); assay type: functional, cell-based
[6] = cells
[7] = tested on: INS1; test: protection of INS-1E cells from cytokine death, dose response, ATP luminescence, dry powder (AID 488844); assay type: functional, cell-based; details: Rattus norvegicus
[8] = tested on: INS1; test: protection from cytokine-driven beta-cell apoptosis, dose response, JC-1 fluorescence, INS-1E, dry powder, set 2 (AID 488867); assay type: functional, cell-based; details: Rattus norvegicus
[9] = tested on: INS1; test: protection from cytokine-induced mitochondrial depolarization, dose response, cell-based, INS-1E, JC-1 fluorescence ratio, dry powder (AID 488931); assay type: functional; details: Rattus norvegicus

## COc1cc2c(cc1OC)-c1cc(NCc3ccccc3)nc(=O)n1CC2
[1]
  IC50: > 80 µM (inactive)
[2]
  IC50: > 80 µM (inactive)

## CC(C)CSc1nnc2c3ccccc3n(C)c2n1
[3]
  IC50: > 67.5 µM (inactive)
[4]
  IC50: > 67.5 µM (inactive)
[5]
  IC50: 4.37 µM (active)
[6]
  IC50: > 138 µM (inactive)

## COc1ccc(S(=O)(=O)N(C)C[C@H]2Oc3c(NC(=O)Nc4cccc5ccccc45)cccc3C(=O)N([C@@H](C)CO)C[C@@H]2C)cc1
[7]
  AC50: 85 µM (active)
[8]
  AC50: > 260 µM (inactive)
[9]
  AC50: 104 µM (active)
